# Experimental data: patent publication US4835162A (priority 1987, dated 1989)
# Entries after “also recorded” stand apart in the source; their conditions may differ. Like-named read-outs stand apart in the source and are kept apart here.
# Experiments:
# rats [1] = details: rat, in vivo
# rats [2] = details: rat, in vivo; remark: listed apart in the source
# rats [3] = details: rat, in vivo; remark: listed apart in the source
# rats [4] = details: rat, in vivo; remark: listed apart in the source
# rats [5] = details: rat, in vivo, iv
# rats [6] = tested on: rats; design: species or system Sprague-Dawley male rats; Blockade of (nicotine-induced prostration) EC50: unit not given here; details: rat, in vivo
# [7] = molecular target: nicotinic receptors (rat brain membranes); assay type: binding; details: read-out: 3H-Nicotine Binding IC50
# [8] = molecular target: nicotinic receptors (rat brain membranes); details: read-out: 3H-MCC Binding IC50
# rats [9] = test: animal or person; details: Rattus norvegicus, iv, read-out: Antagonistic dose needed to completely block elevation in systolic blood pressure
# [10] = molecular target: nicotinic receptors (rat brain membranes); assay type: binding; details: for IC50: pH 7, read-out: [3H]-nicotine IC50; for Kd: read-out: Kd value in competition binding
# [11] = molecular target: nicotinic receptors (rat brain membranes); assay type: binding; details: for IC50: pH 7, read-out: [3H]-MCC IC50
# rats [12] = test: animal or person; details: Rattus norvegicus, ip, 7 min, read-out: % Antagonism (seizures)
# [13] = tested on: nicotinic receptors (rat brain membranes); assay type: binding
compound,measurement,setting,value
"CN1CCCC1c1cccnc1 (single isomer, unassigned; (-)) [(-)-nicotine]","dose producing effect: prostration, in words",rats [1],prostration of all four limbs
same,times more effective than (+)-enantiomer of nicotine (prostration),rats [1],20 times
same,times more potent than N'-ethyl analogue (prostration),rats [1],10 times
same,times more potent than N'-propyl analogue (prostration),rats [1],40 times
same,times more potent than nicotonium analogue (prostration),rats [1],50 times
same,volume of nicotine solution required to produce prostration,rats [1],1-2 μl of a 10^-3 M solution
same,Prostration EC50,rats [2],2
same,"agonist or inactive on prostration, in words",rats [2],agonists
same,duration of prostration,rats [2],2 to 4 min
same,onset of prostration response,rats [2],1 to 3 s
same,"respiratory effect, in words",rats [2],deep diaphragmatic breathing and a decreased respiratory rate
same,"signs after nicotine, in words",rats [3],"prostration followed by tremors, fasciculations, cyanosis and labored breathing, and myoclonic seizures"
same,Seizures,"rats [3]; ip, 1.5 mg/kg",10/10
same,Mortality,"rats [4]; ip, 3 mg/kg",8/10
same,increase in systolic blood pressure by nicotine,rats [5],25%
CN(C)c1cccnc1 [3-dimethylaminopyridine],"agonist or inactive on prostration, in words",rats [2],agonists
"Nc1c2c(nc3ccccc13)CCCC2 [9-aminotetrahydroacridine, reference compound]",Blockade of (nicotine-induced prostration) EC50,rats [6],200
CC(=O)OCCN(C)C [DMAE acetate],IC50,[7]; pH 7.5,50000 nM
same,IC50,[8]; pH 7.5,50000 nM
same,Prostration EC50,rats [2],> 1000
"CN(C)CCOC(=O)c1ccccc1 [DMAE benzoate, dimethylaminoethyl benzoate]",Blockade of (nicotine-induced prostration) EC50,rats [6],100
same,% Antagonism (seizures),rats [3],45%
same,Seizures,rats [3],5/9
same,ED100,rats [9],10 ± 25 mg/kg
CN(C)CCOC(N)=O [DMAE carbamate],IC50,[10],10000 nM
same,IC50,[11],10000 nM
same,IC50,[7]; pH 7.5,10000 nM
same,IC50,[8]; pH 7.5,10000 nM
same,Prostration EC50,rats [2],400
same,"behavioral effect, in words",rats [2],only a similar effect
"CN(C)CCOC(=O)C1CCCCC1 [DMAE cyclohexylcarboxylate, dimethylaminoethyl cyclohexylcarboxylate]",IC50,[7],2000 nM
same,IC50,[8],4000 nM
same,Blockade of (nicotine-induced prostration) EC50,rats [6],100
same,% Antagonism (seizures),rats [3],50%
same,Seizures,rats [3],4/8
same,"seizures, in words",rats [3],about half of the rats exhibited seizures
"CNC(=O)OCCN(C)C [DMAE methylcarbamate, dimethylaminoethylmethylcarbamate]",IC50,[10],500 nM
same,IC50,[11],800 nM
same,IC50,[7]; pH 7.5,500 nM
same,IC50,[8]; pH 7.5,800 nM
same,Prostration EC50,rats [2],300
same,"behavioral effect, in words",rats [2],moderate weakness in the hindlimbs and head
CN(C)CCOC(=O)c1cccnc1 [DMAE nicotinate],IC50,[7],200 nM
same,IC50,[8],200 nM
same,Blockade of (nicotine-induced prostration) EC50,rats [6],50
same,"blockade of nicotine-induced prostration / antagonism, in words",rats [6],next in effectiveness and of comparable activity; also recorded: antagonistic to the nicotine-induced prostration
CN(C)CCOC(=O)Nc1ccccc1 [DMAE phenylcarbamate],IC50,[7],100000 nM
same,IC50,[8],100000 nM
CN(C)CCOC(=S)Nc1ccccc1 [DMAE phenylthiocarbamate],IC50,[7],70000 nM
same,IC50,[8],20000 nM
CN(C)CCOC(=O)CCC(=O)OCCN(C)C [DMAE succinate],IC50,[7]; pH 7.5,50000 nM
same,IC50,[8]; pH 7.5,60000 nM
same,Prostration EC50,rats [2],1000
CNC(=O)OCCCN(C)C [DMAP methylcarbamate],IC50,[7]; pH 7.5,200 nM
same,IC50,[8]; pH 7.5,50 nM
same,Prostration EC50,rats [2],100
"CCN1CCCC1c1cccnc1 (stereo not shown) [N'--ethyl nornicotine, reference compound]",decrease in affinity relative to nicotine,[10],3 fold
same,IC50,[10],30 nM
same,IC50,[11],100 nM
same,IC50,[7]; pH 7.5,30 nM
same,IC50,[8]; pH 7.5,100 nM
same,Prostration EC50,rats [2],20
"CCCN1CCCC1c1cccnc1 (stereo not shown) [N'--propyl nornicotine, reference compound]",decrease in affinity relative to nicotine,[10],200 fold
same,IC50,[10],600 nM
same,IC50,[11],1000 nM
same,IC50,[7]; pH 7.5,600 nM
same,IC50,[8]; pH 7.5,1000 nM
same,Prostration EC50,rats [2],80
CNC(=O)OC1CCN(Cc2ccccc2)CC1 [N--benzyl-4-piperdyl methylcarbamate],IC50,[7],> 100000 nM
same,IC50,[8],> 100000 nM
CN1CCCC(OC(=O)c2ccccc2)C1 (stereo not shown) [N--methyl-3-piperdyl benzoate],IC50,[7],30000 nM
same,IC50,[8],20000 nM
same,Blockade of (nicotine-induced prostration) EC50,rats [6],300
"COc1ccc(CC2c3cc(OC)c(OC)cc3CCN2C)cc1OC (stereo not shown) [N--methyltetrahydro papavarine, reference compound]",IC50,[7],70000 nM
same,IC50,[8],80000 nM
"C[N+](C)(C)CCOC(=O)C1CCCCC1 [TMAE cyclohexylcarboxylate, choline ester of cyclohexylcarboxylic acid]",IC50,[7],80 nM
same,IC50,[8],50 nM
same,Blockade of (nicotine-induced prostration) EC50,rats [6],10
same,Seizures,rats [3],1/8
same,blockade of seizure activity,rats [3],78%
same,% Antagonism (protection against nicotine mortality),rats [4],66%
same,responders at 25 mg/kg,rats [12],78%
C[N+](C)(C)CCOC(=O)Cc1ccccc1 [TMAE phenylacetate],IC50,[7],2000 nM
same,IC50,[8],300 nM
same,Blockade of (nicotine-induced prostration) EC50,rats [6],100
same,"blockade of nicotine-induced prostration / antagonism, in words",rats [6],next in effectiveness and of comparable activity
C[N+](C)(C)CCOC(=O)Nc1ccccc1 [TMAE phenylcarbamate],IC50,[7],6000 nM
same,IC50,[8],800 nM
same,Blockade of (nicotine-induced prostration) EC50,rats [6],200
same,"blockade of nicotine-induced prostration / antagonism, in words",rats [6],next in effectiveness and of comparable activity
same,Seizures,rats [3],1/9
same,"protection against seizures, in words",rats [3],almost complete protection
same,% Antagonism (protection against nicotine mortality),rats [4],50%
same,Mortality,rats [4],4/10
same,responders at 25 mg/kg,rats [12],89%
same,ED100,rats [9],5 ± 1 mg/kg
C[N+](C)(C)CCOC(=S)Nc1ccccc1 [TMAE phenylthiocarbamate],IC50,[7],500 nM
same,IC50,[8],500 nM
same,Blockade of (nicotine-induced prostration) EC50,rats [6],50
same,"blockade of nicotine-induced prostration / antagonism, in words",rats [6],next in effectiveness and of comparable activity
same,% Antagonism (protection against nicotine mortality),rats [4],63%
same,Mortality,rats [4],3/10
same,ED100,rats [9],4 ± 0.8 mg/kg
"C[N+](C)(C)CCOC(=O)CCC(=O)OCC[N+](C)(C)C [TMAE succinate, succinylcholine]",Prostration EC50,rats [2],50
"[3H]C([3H])([3H])[N+](C)(C)CCOC(=O)NC [[^3 H]-MCC, [^3 H]-methylcarbamyl choline]",displaceability of [3H]-MCC binding by muscarinic antagonists,[11],"not [^3 H]-MCC binding, is displaceable by low concentrations of muscarinic antagonists; also recorded: not displaceable by muscarinic cholinergic antagonists"
same,Bmax of [3H]-MCC binding,[13],4.0×10^-14 moles/mg protein
same,"Scatchard Kd and Bmax with unlabeled (-)-nicotine replacing MCC, in words",[13],comparable Kd and Bmax values
same,"rate constant for association, [3H]-MCC","[13]; brain membranes, pH 7",300000 M⁻¹ s⁻¹
same,"rate constant for dissociation, [3H]-MCC","[13]; brain membranes, pH 7",0.001 s⁻¹
same,Kd,[13]; read-out: Kd (Hill binding constant) of [3H]-MCC,0.9 nM
same,Kd,"[13]; read-out: Kd from rate constants, [3H]-MCC",3.3 nM
same,Kd,"[13]; read-out: Kd, Scatchard analysis of [3H]-MCC binding",1.1 nM
CC(=O)OCC[N+](C)(C)C [acetylcholine],"psychotropic action (prostration), in words",rats [1],inactive
same,Prostration EC50,rats [2],300
"CN1[C@@H]2CC[C@H]1C[C@@H](OC(=O)C(CO)c1ccccc1)C2 (stereo partly shown) [atropine, reference compound]","blockade of nicotine-induced prostration / antagonism, in words",rats [6],inactive
same,Seizures,rats [3],6/6
same,"protection against nicotine mortality, in words",rats [4],ineffective
same,responders at 25 mg/kg,rats [12],0%
C[N+](C)(C)CCOC(N)=O [carbamylcholine],Prostration EC50,rats [2],100
"O=c1cccc2n1C[C@@H]1CNC[C@H]2C1 [cytisine, reference compound]",IC50,[7]; pH 7.5,6 nM
same,IC50,[8]; pH 7.5,0.1 nM
same,Prostration EC50,rats [2],2
C[N+](C)(C)CCCCCC[N+](C)(C)C [hexamethonium],IC50,[10],> 100000 nM
same,Kd,[10],> 100000 nM
"CCN(CC)CC(=O)Nc1c(C)cccc1C [lidocaine, reference compound]","blockade of nicotine-induced prostration / antagonism, in words",rats [6],inactive
"CN1C(CC(O)c2ccccc2)CCCC1CC(O)c1ccccc1 (stereo not shown) [lobelanidine, reference compound]",IC50,[7],20 nM
same,IC50,[8],5 nM
same,Blockade of (nicotine-induced prostration) EC50,rats [6],25
"CN1[C@@H](CC(=O)c2ccccc2)CCC[C@H]1CC(=O)c1ccccc1 [lobelanine, reference compound]",IC50,[7],10 nM
same,IC50,[8],5 nM
same,Blockade of (nicotine-induced prostration) EC50,rats [6],25
"CNC(=O)Oc1ccc2c(c1)[C@]1(C)CCN(C)[C@@H]1N2C [physostigmin, reference compound]","blockade of nicotine-induced prostration / antagonism, in words",rats [6],inactive
"CCN(CC)CCOC(=O)c1ccc(N)cc1 [procaine, reference compound]","blockade of nicotine-induced prostration / antagonism, in words",rats [6],effectively block nicotine-induced prostration; also recorded: antagonists
"CN(C)C(=O)Oc1cccc([N+](C)(C)C)c1 [prostigmin, reference compound]","blockade of nicotine-induced prostration / antagonism, in words",rats [6],inactive
N--benzylpiperidyl-methylcarbamate,IC50,[7],> 100000 nM
same,IC50,[8],> 100000 nM
α-bungarotoxin,IC50,[10],> 100000 nM
same,Kd,[10],> 100000 nM
same,IC50,[11],> 100000 nM
